# Like-named read-outs stand apart in the source and are kept apart here.
# Key:
# [1] = tested on: NCI-H460 (NSCLC) cell line; test: Cancer cell cytotoxicity assay (Calcein AM / Cell Titer-Glo), NCI-H460; assay type: cell-based, human; details: NSCLC
# Procedure: (§1) Compounds of the invention and comparative compounds were assayed in three cancer cell lines to confirm cytotoxic activity and to set a range of concentrations to use in subsequent assays. All cell lines were maintained in RPMI medium 1640 supplemented with 10% (wt/vol) fetal bovine serum and penicillin-streptomycin (100 units/ml and 100 μg/ml). Cells were routinely checked for microbial or mycoplasma contamination and if necessary replaced. Cells were harvested by trypsinization using 0.25% trypsin and 0.1% EDTA and then counted in a ViCell XR coulter counter in duplicate, before and after dilution for assay plating. Between four to nine different types of human cancer cells were plated at a density of 10,000-15,000 cells per well of each 96-well black tissue culture treated microtiter plate, then were grown for 1 hour at 37° C. with 5% CO2/95% air in a humidified incubator to allow cells to attach before compound addition. Compound stocks (100×) were prepared in 96-well V-bottom polypropylene microtiter plates. Five serial (1:2) dilutions were made with anhydrous DMSO at 100× the final concentration used in the assay. The individual wells in compound-containing […] well plates were diluted 1:10 with complete cell culture medium and the 10× (10 μL) stocks were added to 90 μl of cells in each plate to ensure full mixing of stocks with culture media by using a Biomek FX liquid handler with 96-well head. Doxorubicin was used as the control to monitor the behavior of each cell line. Cells were incubated with the compounds for 3 to 4 days before fluorescence and luminescence reading. Test plates were removed from the incubator and washed once in sterile PBS to remove serum containing calcium esterases. Calcein AM (acetoxymethyl ester) reagent was added and the cells were incubated for 30 min at 37° C. Plates were read for emission by using a fluorescein filter (excitation 485 nm, emission 535 nm). An equal volume (30 μL) of Cell Titer-Glo reagent (Promega Corporation, Inc.) was added and incubated for 10 min at room temperature with gentle agitation to lyse the cells. Each plate was re-read for luminescence to confirm the inhibition observed in the fluorescent […] assay as a measure of cell viability. The cancer cell cytotoxicity assays were run in triplicate using ≧5 different drug concentrations, and the data were analyzed to establish statistical significance and a valid IC50 value for inhibition of cell growth, based on ≧2 log differences in drug effect.
# (§2) The cancer cell cytotoxicities (determined substantially according to the method of Example 5) of various compounds of the invention and comparative compounds as determined in four to five different human cancer cell lines are shown in Table 1. The structures of the compounds listed are found in FIGS. 2-4.
# H1299 (NSCLC) cell line = test: Cancer cell cytotoxicity assay (Calcein AM / Cell Titer-Glo), H1299; assay type: cell-based, human; details: NSCLC
# Procedure: as §1, §2
# [2] = tested on: HT29 (Colorectal) cell line; test: Cancer cell cytotoxicity assay (Calcein AM / Cell Titer-Glo), HT29; assay type: cell-based, human; details: Colorectal
# Procedure: as §1, §2
# [3] = tested on: NCI-H460 (NSCLC) cell line; details: footnote 2: data from Langenhan et al. 2005; cited from earlier work
# [4] = tested on: SKOV3 (Ovarian) cell line; details: footnote 2: data from Langenhan et al. 2005; cited from earlier work
# [5] = tested on: SKOV3 (Ovarian) cell line; test: Cancer cell cytotoxicity assay (Calcein AM / Cell Titer-Glo), SKOV3; assay type: cell-based, human; details: Ovarian
# Procedure: as §1, §2
# A549 (NSCLC) cell line [6] = test: Cancer cell cytotoxicity assay (Calcein AM / Cell Titer-Glo), A549; assay type: cell-based, human; details: NSCLC
# Procedure: as §1, §2
# A549 (NSCLC) cell line [7] = details: footnote 2: data from Langenhan et al. 2005; cited from earlier work
# [8] = footnote 3: determined at same time as CEN07-117 and -121
# [9] = footnote 4: determined at same time as CEN08-177 and -178
# [10] = footnote 5: determined at same time as CEN08-193
# [11] = footnote 6: determined at same time as CEN08-243 and -244
# [12] = footnote 7: determined at same time as CEN08-180
structure (smiles),measurement,setting,value
"CON(C1CCC2(C)C(CCC3C2CCC2(C)C(C4=CC(=O)OC4)CCC32O)C1)C1OCC(O)C(O)C1O [CEN07-W-102 (5S), reference compound]",IC50,[1]; [8],110 nM
same,IC50,[1]; [9],10 nM
same,IC50,[1]; [10],5 nM
same,IC50,[1]; [11],15 nM
same,IC50,[1]; [12],24 nM
same,IC50,H1299 (NSCLC) cell line; assay set not specified,9 nM
same,IC50,H1299 (NSCLC) cell line; [8],110 nM
same,IC50,H1299 (NSCLC) cell line; [9],20 nM
same,IC50,H1299 (NSCLC) cell line; [10],6 nM
same,IC50,H1299 (NSCLC) cell line; [11],20 nM
same,IC50,[2]; assay set not specified,20 nM
same,IC50,[2]; [8],120 nM
same,IC50,[2]; [10],7 nM
same,IC50,[2]; [12],33 nM
same,IC50,[3],53 nM
same,IC50,[4],45 nM
same,IC50,[5]; assay set not specified,310 nM
same,IC50,[5]; [9],40 nM
same,IC50,[5]; [10],26 nM
same,IC50,[5]; [11],25 nM
same,IC50,[5]; [12],36 nM
same,IC50,A549 (NSCLC) cell line [6]; [8],40 nM
same,IC50,A549 (NSCLC) cell line [6]; [9],10 nM
same,IC50,A549 (NSCLC) cell line [6]; [10],3 nM
same,IC50,A549 (NSCLC) cell line [6]; [11],17 nM
same,IC50,A549 (NSCLC) cell line [6]; [12],8 nM
same,IC50,A549 (NSCLC) cell line [7],33 nM
